According to ChEMBL document CHEMBL1153235, “Synthesis and antiproliferating activity of iron chelators of hydroxyamino-1,3,5-triazine family” (Bioorg Med Chem Lett, 2010):
pIC50: −log10 of the molar value.

Assays:
MIA PaCa-2 (human) = experiment: Cytotoxicity against human MIAPaCa2 cells after 96 hrs by MTT assay; details: MIA PaCa-2, 96 h
[1] = Cytotoxicity against human foreskin fibroblasts after 96 hrs by MTT assay; assay type: cell-based; details: Fibroblast
MDA-MB-231 (human) = experiment: Cytotoxicity against human MDA-MB-231 cells after 96 hrs by MTT assay; details: MDA-MB-231, 96 h

Structure (SMILES) | pIC50 (MIA PaCa-2 (human)) | pIC50 [1] | pIC50 (MDA-MB-231 (human))
CCCCNc1nc(NN)nc(N(C)O)n1 | 4.30 | 3.52 | 4.12
CN(O)c1nc(NN)nc(N2CCOCC2)n1 | 3.82 | 3.40 | 3.82
CON(C)c1nc(N(C)O)nc(N2CCOCC2)n1 | 4.40 | 3.60 | 3.82
CN(O)c1nc(N2CCOCC2)nc(N2CCC=N2)n1 | 4.30 | 3.60 | 4.12
CN(O)c1nc(N(C)O)nc(N2CCOCC2)n1 | 6.00 | 3.70 | 5.05
O=C(O)c1ccc(-n2nc(-c3ccccc3O)nc2-c2ccccc2O)cc1 [DEFERASIROX] | 5.40 | 4.00 | 5.00
CCCCNc1nc(N(C)O)nc(N(C)O)n1 | 6.10 | 4.78 | 5.40
ONc1nc(NO)nc(N2CCOCC2)n1 | 4.40 | 3.46 | 3.60
CCOC(=O)CN(C)c1nc(N(C)O)nc(N(C)O)n1 | 5.40 | 3.70 | 4.70
